Reference: US8378100B2, “Phosphonate derivatives as autotaxin inhibitors” (University of Virginia Patent Foundation, priority 2008, dated 2013)

Target: recombinant human ATX (Homo sapiens, UniProt Q13822)
Experiment: Choline detection assay for ATX
Type: biochemical
Details: for ATX activity (%) 1 μM: 1 μM test compound; for ATX activity (%) 1 μM / ATX activity (%) 10 Mm / ATX activity (%) 100 μM / ATX activity (%) 10 μM: activity without test compound = 100%; for ATX activity (%) 10 Mm: 10 μM test compound as printed; for ATX activity (%) 100 μM: 100 μM test compound; for ATX activity (%) 10 μM: 10 μM test compound; for ATX inhibition (in words): compounds synthesized from D-tyrosine
Experimental: The phosphonate derivatives were tested in choline detection assay for ATX inhibition. The ATX activity assay was conducted in 0.1 ml, buffer: (in mM: Tris-HCl 100, pH9, NaCl 150, MgCl2 5, CoSO4 0.03, 0.05% Triton X-100), 1 mM 18:1 LPC, using recombinant human ATX with or without test compounds; incubation was for 16 hours at 37° C. The released choline was detected as follows: Samples were mixed with 0.15 ml of 50 mM TrisHCl containing 2.7 mM TOOS(N-ethyl-N-2-hydroxy-3-sulfopropyl)-m-toluidine, 2.7 mM 4-AAP (4-aminoantipyrine), 47.7 U/ml horseradish peroxidase, 18 U/ml choline oxidase, and 5 mM MgCl2. After 30 min incubation at 37° C., light absorbance (550 nm) was determined, and the amount of choline release was calculated from a standard curve.
The ATX activity was measured in the presence of the test compounds under different concentrations (100 μM, 10 μM and 1 μM). The ATX activity without TEST compounds was used as the standard (100% activity). Some β-hydroxy phosphonate derivatives inhibited ATX activity at only the highest concentration tested. […] These two compounds were synthesized from protected L-tyrosine and they are diastereomers. The less polar isomer, f17, (also known as VPC8a202) was able to inhibit 73% of ATX activity at 1 μM.

[1] = table of g1-g15 (β-keto phosphonates)

| SMILES | ATX activity (%) 1 μM (Table 1 (f1-f34), 1 µM) | ATX activity (%) 10 Mm (Table 1 (f1-f34)) | ATX activity (%) 100 μM (Table 1 (f1-f34), 100 µM) | further results |
| --- | --- | --- | --- | --- |
| CCCCCCCCCCCCCCCC(=O)N[C@@H](Cc1ccc(OCc2ccccc2)cc1)C(O)CP(=O)(O)O (single isomer, unassigned) [f7] | 97% | 77% | 68% | – |
| CCCCCCCCCCCCCCCC(=O)N[C@H](Cc1ccc(OCCCCC)cc1)C(=O)CP(=O)(O)O [g12] | – | – | – | ATX activity (%) 1 μM [1]: 93%; ATX activity (%) 10 μM [1]: 84% |
| CCCCCCCCCCCCCCCC(=O)N[C@H](Cc1ccc(OCc2ncc(C)c(OC)c2C)cc1)C(O)CP(=O)(O)O (single isomer, unassigned) [f16] | 69% | 64% | 47% | ATX inhibition (in words): did potently inhibit ATX |
| CCCCCCCCCCCCCCCC(=O)N[C@@H](Cc1ccc(OCCCCC)cc1)C(=O)CP(=O)(O)O [g13] | – | – | – | ATX activity (%) 1 μM [1]: 95%; ATX activity (%) 10 μM [1]: 83% |
| CCCCCCCCCCCCCCCC(=O)N[C@H](Cc1ccc(OCc2ccccc2)cc1)C(O)CP(=O)(O)O (single isomer, unassigned) [f6] | 80% | 81% | 83% | – |
| CCCCCCCCCCCCCCCC(=O)N[C@@H](Cc1ccc(OCc2ccccc2)cc1)C(=O)CP(=O)(O)O [g4] | – | – | – | ATX activity (%) 10 μM [1]: 71%; ATX activity (%) 100 μM [1]: 61% |
| CCCCCCCCCCCCCCCC(=O)N[C@@H](Cc1ccc(OCc2ccccc2)cc1)C(O)CP(=O)(O)O (single isomer, unassigned) [f8] | 76% | 83% | 78% | – |
| CCCCCCCC/C=C\CCCCCCCC(=O)N[C@@H](Cc1ccc(OCc2ncc(C)c(OC)c2C)cc1)C(O)CP(=O)(O)O (single isomer, unassigned) [f42] | – | – | – | ATX activity (%) 1 μM (Table 2 (f35-f44)): 77%; ATX activity (%) 10 μM (Table 2 (f35-f44), 10 µM): 68%; ATX activity (%) 100 μM (Table 2 (f35-f44), 100 µM): 58% |
| CCCCCCCCCCCCCCCC(=O)N[C@H](Cc1ccc(OCc2ccccc2)cc1)C(=O)CP(=O)(O)O [g3] | – | – | – | ATX activity (%) 10 μM [1]: 82%; ATX activity (%) 100 μM [1]: 76% |
| CCCCCCCCCCCCCCCC(=O)N[C@H](Cc1ccc(OCc2ccccc2)cc1)C(O)CP(=O)(O)O (single isomer, unassigned) [f5] | 83% | 82% | 83% | – |
| CCCCCCCC/C=C\CCCCCCCC(=O)N[C@@H](Cc1ccc(OCc2ncc(C)c(OC)c2C)cc1)C(O)CP(=O)(O)O (single isomer, unassigned) [f41] | – | – | – | ATX activity (%) 10 μM (Table 2 (f35-f44), 10 µM): 45%; ATX activity (%) 100 μM (Table 2 (f35-f44), 100 µM): 15% |
| CCCCCCCCCCCCCCCC(=O)N[C@H](Cc1ccc(OCc2ncc(C)c(OC)c2C)cc1)C(O)CP(=O)(O)O (single isomer, unassigned) [f15] | 108% | 95% | 63% | ATX inhibition (in words): did potently inhibit ATX |
| CCCCCCCCCCCCCCCCCC(=O)N[C@@H](Cc1ccc(OCc2ncc(C)c(OC)c2C)cc1)C(O)CP(=O)(O)O (single isomer, unassigned) [f39] | – | – | – | ATX activity (%) 1 μM (Table 2 (f35-f44)): 101%; ATX activity (%) 10 μM (Table 2 (f35-f44), 10 µM): 91%; ATX activity (%) 100 μM (Table 2 (f35-f44), 100 µM): 81% |
| CCCCCCCCCCCCCCCC(=O)N[C@H](Cc1ccc(OCCC)cc1)C(=O)CP(=O)(O)O [g10] | – | – | – | ATX activity (%) 1 μM [1]: 104%; ATX activity (%) 10 μM [1]: 97%; ATX activity (%) 100 μM [1]: 75% |
| CCCCCCCCCCCCCCCCCC(=O)N[C@@H](Cc1ccc(OCc2ncc(C)c(OC)c2C)cc1)C(O)CP(=O)(O)O (single isomer, unassigned) [f40] | – | – | – | ATX activity (%) 10 μM (Table 2 (f35-f44), 10 µM): 90%; ATX activity (%) 100 μM (Table 2 (f35-f44), 100 µM): 62% |
| CCCCCCCCCCCCCCCC(=O)N[C@@H](Cc1ccc(OC)cc1)C(=O)CP(=O)(O)O [g9] | – | – | – | ATX activity (%) 1 μM [1]: 96%; ATX activity (%) 10 μM [1]: 68%; ATX activity (%) 100 μM [1]: 45% |
| CCCCCCCCCCCCCCCC(=O)N[C@@H](Cc1ccc(OCC2CCCCC2)cc1)C(O)CP(=O)(O)O (single isomer, unassigned) [f14] | – | 80% | – | ATX activity (%) 1 μM (Table 1 (f1-f34)): 80%; ATX activity (%) 100 μM (Table 1 (f1-f34)): 80% |
| CCCCCCCCCCCCCC(=O)N[C@H](Cc1ccc(OCc2ncc(C)c(OC)c2C)cc1)C(O)CP(=O)(O)O (single isomer, unassigned) [f38] | – | – | – | ATX activity (%) 100 μM (Table 2 (f35-f44), 100 µM): 35% |
| CCCCCCCCCCCCCCCC(=O)N[C@@H](Cc1ccc(OCc2ncc(C)c(OC)c2C)cc1)C(O)CP(=O)(O)O (single isomer, unassigned) [f18] | – | 21% | – | ATX activity (%) 1 μM (Table 1 (f1-f34)): 63%; ATX activity (%) 100 μM (Table 1 (f1-f34)): 8%; inhibition of ATX (in words) (at 1 μM): significant inhibition |
| CCCCCCCCCCCCCCCC(=O)N[C@@H](Cc1ccc(OCCCCC)cc1)C(O)CP(=O)(O)O (single isomer, unassigned) [f30] | 94% | 90% | 70% | – |
| CCCCCCCCCCCCCCCC(=O)N[C@H](Cc1ccc(OCC2CCCCC2)cc1)C(O)CP(=O)(O)O (single isomer, unassigned) [f13] | – | 80% | – | ATX activity (%) 1 μM (Table 1 (f1-f34)): 84%; ATX activity (%) 100 μM (Table 1 (f1-f34)): 67% |
| CCCCCCCCCC(=O)N[C@H](Cc1ccc(OCc2ncc(C)c(OC)c2C)cc1)C(O)CP(=O)(O)O (single isomer, unassigned) [f35] | – | – | – | ATX activity (%) 10 μM (Table 2 (f35-f44)): 86%; ATX activity (%) 100 μM (Table 2 (f35-f44)): 30% |
| CCCCCCCCCCCCCC(=O)N[C@H](Cc1ccc(OCc2ncc(C)c(OC)c2C)cc1)C(O)CP(=O)(O)O (single isomer, unassigned) [f37] | – | – | – | ATX activity (%) 10 μM (Table 2 (f35-f44)): 99%; ATX activity (%) 100 μM (Table 2 (f35-f44), 100 µM): 67% |
| CCCCCCCCCCCCCCCC(=O)N[C@@H](Cc1ccc(OCc2ncc(C)c(OC)c2C)cc1)C(=O)CP(=O)(O)O [g7] | – | – | – | ATX activity (%) 1 μM [1]: 71%; ATX activity (%) 10 μM [1]: 74%; ATX activity (%) 100 μM [1]: 26% |
| CCCCCCCCCCCCCCCC(=O)N[C@@H](Cc1ccc(OC)cc1)C(O)CP(=O)(O)O (single isomer, unassigned) [f21] | 77% | 56% | 36% | – |
| CCCCCCCCCCCCCCCC(=O)N[C@@H](Cc1ccc(OCCC)cc1)C(=O)CP(=O)(O)O [g11] | – | – | – | ATX activity (%) 10 μM [1]: 97%; ATX activity (%) 100 μM [1]: 72% |
| CCCCCCCCCCCCCCCC(=O)N[C@H](Cc1ccc(OC)cc1)C(=O)CP(=O)(O)O [g8] | – | – | – | ATX activity (%) 1 μM [1]: 84%; ATX activity (%) 10 μM [1]: 71%; ATX activity (%) 100 μM [1]: 32% |
| CCCCCCCCCCCCCCCCCCCC(=O)NC(Cc1ccc(OCc2ncc(C)c(OC)c2C)cc1)C(O)CP(=O)(O)O (single isomer, unassigned) [f43] | – | – | – | ATX activity (%) 1 μM (Table 2 (f35-f44)): 64%; ATX activity (%) 10 μM (Table 2 (f35-f44)): 45%; ATX activity (%) 100 μM (Table 2 (f35-f44)): 10% |

Second part, led by results:

| ATX activity (%) 1 μM (Table 1 (f1-f34), 1 µM) | ATX activity (%) 10 Mm (Table 1 (f1-f34)) | ATX activity (%) 100 μM (Table 1 (f1-f34), 100 µM) | SMILES | further results |
| --- | --- | --- | --- | --- |
| 84% | 80% | 69% | CCCCCCCCCCCCCCCC(=O)N[C@@H](Cc1ccc(OC)cc1)C(O)CP(=O)(O)O (single isomer, unassigned) [f22] | – |
| 81% | 85% | 80% | CCCCCCCCCCCCCCCC(=O)N[C@H](Cc1ccc(OCCCCC)cc1)C(O)CP(=O)(O)O (single isomer, unassigned) [f27] | – |
| 108% | 108% | 90% | CCCCCCCCCCCCCCCC(=O)N[C@H](Cc1ccc(OCCC)cc1)C(O)CP(=O)(O)O (single isomer, unassigned) [f24] | – |
| 100% | 78% | 57% | CCCCCCCCCCCCCCCC(=O)N[C@H](Cc1ccc(OC)cc1)C(O)CP(=O)(O)O (single isomer, unassigned) [f19] | – |
| 80% | 79% | 72% | CCCCCCCCCCCCCCCC(=O)N[C@H](Cc1ccc(OCCC)cc1)C(O)CP(=O)(O)O (single isomer, unassigned) [f23] | – |
| 95% | 84% | 82% | CCCCCCCCCCCCCCCC(=O)N[C@H](Cc1ccc(OC)cc1)C(O)CP(=O)(O)O (single isomer, unassigned) [f20] | – |
| 98% | 83% | 67% | CCCCCCCCCCCCCCCC(=O)N[C@@H](Cc1ccc(OCCCCC)cc1)C(O)CP(=O)(O)O (single isomer, unassigned) [f29] | – |
| 110% | 97% | 77% | CCCCCCCCCCCCCCCC(=O)N[C@@H](Cc1ccc(OCCC)cc1)C(O)CP(=O)(O)O (single isomer, unassigned) [f25] | – |
